{
  "source": "patent US20080045482A1",
  "about": "“COMPOSITIONS AND METHODS FOR THE TREATMENT OF VIRAL INFECTIONS” (priority 2006, published 2008)",
  "key": {"[1]": {"system": "A/California/2935/03 (H1N1)", "assay_type": "cell-based, human influenza A virus"}, "[2]": {"system": "A/NorthDakota/2463/03 (H3N2)", "assay_type": "cell-based, human influenza A virus"}, "[3]": {"system": "A/Equine1/Prague/1/56 (H3N8)", "assay_type": "cell-based, equine influenza A virus"}, "[4]": {"system": "A/Duck/Penn/10218/84 (H5N2)", "assay_type": "cell-based, avian influenza A virus"}, "[5]": {"system": "Human Immunodeficiency Virus-1 (HIV-1)", "conditions": "HIV-1, in words"}, "[6]": {"system": "HIV-2", "conditions": "HIV-2, in words"}, "[7]": {"system": "Herpes Simplex Virus-1 (HSV-1)", "conditions": "HSV-1, in words"}, "[8]": {"system": "HSV-2", "conditions": "HSV-2, in words"}, "[9]": {"system": "Adenovirus type-1 (AdV-1, strain 65089)", "conditions": "AdV-1, strain 65089, in words"}, "[10]": {"system": "Punta Torro Virus (strain Adames)", "conditions": "in words"}, "[11]": {"system": "Pichinde Virus (strain 4763)", "conditions": "Pichinde Virus strain 4763, in words"}, "[12]": {"system": "Vaccinia Virus (strain WR)", "conditions": "in words"}, "[13]": {"system": "Venezuelan Equine Encephalitis Virus (VEE, Trinidad strain)"}, "[14]": {"system": "West Nile Virus (WNV, strain New York)", "conditions": "in words"}, "[15]": {"system": "Yellow Fever Virus (17D strain)"}, "[16]": {"test": "Metabolism in the body"}, "[17]": {"system": "B/1060/03", "assay_type": "cell-based, human influenza B virus"}, "[18]": {"test": "pH in water", "assay_type": "physicochemical"}, "[19]": {"system": "viral strains from avian, human and equine influenza", "assay_type": "cell-based, influenza virus", "conditions": "read-out: IC90 concentrations"}, "[20]": {"test": "Aqueous solubility", "conditions": "37° C. in distilled water"}},
  "note": "Where “and” joins values, the source holds several entries; their conditions need not be identical. Equal values may be shown once.",
  "data": [
    {"molecule": "O=C(O)P(O)(O)=S", "note": "[TPFA, thiophosphonoformic acid]", "values": [
      {"measurement": "inhibitory activity", "setting": "[1]", "result": "has inhibitory activity"},
      {"measurement": "inhibitory activity", "setting": "[2]", "result": "has inhibitory activity"},
      {"measurement": "inhibitory activity", "setting": "[3]", "result": "has inhibitory activity"},
      {"measurement": "inhibitory activity", "setting": "[4]", "result": "has inhibitory activity"},
      {"measurement": "inhibitory activity", "setting": "[5]", "result": "has inhibitory activity"},
      {"measurement": "inhibitory activity", "setting": "[6]", "result": "has inhibitory activity"},
      {"measurement": "inhibitory activity", "setting": "[7]", "result": "has inhibitory activity"},
      {"measurement": "inhibitory activity", "setting": "[8]", "result": "has inhibitory activity"},
      {"measurement": "inhibitory activity", "setting": "[9]", "result": "does not have inhibitory activity"},
      {"measurement": "inhibitory activity", "setting": "[10]", "result": "does not have inhibitory activity"},
      {"measurement": "inhibitory activity", "setting": "[11]", "result": "does not have inhibitory activity"},
      {"measurement": "inhibitory activity", "setting": "[12]", "result": "does not have inhibitory activity"},
      {"measurement": "inhibitory activity", "setting": "[13]", "result": "does not have inhibitory activity"},
      {"measurement": "inhibitory activity", "setting": "[14]", "result": "does not have inhibitory activity"},
      {"measurement": "inhibitory activity", "setting": "[15]", "result": "does not have inhibitory activity"},
      {"measurement": "metabolism", "setting": "[16]", "result": "metabolized to phosphonoformic acid and thiophosphonic acid"}
    ]},
    {"molecule": "O=C(O)P(O)(O)=S", "note": "[Thiovir]", "values": [
      {"measurement": "IC50", "setting": "[1]", "result": 38, "unit": "µM"},
      {"measurement": "IC50", "setting": "[2]", "result": 29, "unit": "µM"},
      {"measurement": "IC50", "setting": "[3]", "result": 55, "unit": "µM"},
      {"measurement": "IC50", "setting": "[4]", "result": 32, "unit": "µM"},
      {"measurement": "IC50", "setting": "[17]", "result": 92, "unit": "µM"},
      {"measurement": "pH in water", "setting": "[18]", "result": "approximately 9"},
      {"measurement": "IC90", "setting": "[19]", "result": "< 250 µM and ~200 µM"},
      {"measurement": "aqueous solubility", "setting": "[20]", "result": 40.8, "unit": "g/100 mL"}
    ]}
  ]
}
